Read-outs that look alike come from different tables or passages of the source. Marks after values point to notes of the source that are not given here.
What was measured:
[1] = tested on: patients with symptomatic heart failure; assay: Meta-analysis of clinical events, Protocols A & B (Peto-modified Mantel-Haenszel method); type: in vivo; details: for CHF Hospitalization, Odds Ratio / Death, Odds Ratio: Meta-analysis Protocols A & B, odds in placebo group relative to losartan group
Experimental: This report summarizes the results of the Meta-analysis performed (as proposed in the Data Analysis Plan) on the observed mortality and congestive heart failure (CHF) hospitalization across these two studies. The mortality and CHF hospitalization were not predefined endpoints in the protocols but it was intended that they be analyzed as a part of safety. Thus results from these analyses should not be interpreted as a test of significance as there were no predefined hypotheses corresponding to these safety parameters. […] Odds ratio's with 95% confidence intervals have been provided for these variables. Peto-modified Mantel-Haenszel (Fleiss, J.L., Statistical Methods for Rates and Proportions, Wiley, NY, 1981.) method was used to carry out the Meta-analysis of death and CHF hospitalization rates in the two 12 week exercise studies. This method assumes homogeneity across the studies and provides a test for heterogeneity. […] Since the results from protocols A and B are consistent, a safety Meta-analysis as proposed in the Data Analysis Plan has been performed. Homogeneity between the two studies with respect to odds ratio's for death and CHF hospitalization was found.

[2] = tested on: patients with symptomatic heart failure; assay: Exercise study Protocol B: 12-week placebo-controlled study of losartan, clinical events; type: in vivo; details: for CHF Hospitalization (during DB) / Death: 12 weeks; for Death: during double-blind therapy or related to Serious AE during double-blind
Excerpt: (§1) Protocols A & B were, multicenter, double-blind, randomized, parallel, placebo-controlled studies to investigate the effects of losartan on the exercise capacity and clinical status of patients over the age of 18 with symptomatic heart failure.
(§2) Approximately three hundred and fifty (350) patients with symptomatic heart failure (NYHA Functional Class II-IV, at least 50% Class III-IV) and left ventricular ejection fraction ≤40% were randomized to receive either losartan or placebo once daily for 12 weeks in each study. Following a minimum 15-day baseline placebo period, during which a minimum of 5 and maximum of 8 sets of baseline exercise tests (treadmill exercise test and 6-minute walk test) were performed, patients were randomized to treatment with losartan or placebo in a 2:1 ratio, respectively. According to the protocol's, patients must not have received an ACE-inhibitor for at least 6 weeks prior to the third baseline exercise test visit. Treatment with an ACE-inhibitor was not allowed at any time during these studies.
(§3) This report summarizes the results of the Meta-analysis performed (as proposed in the Data Analysis Plan) on the observed mortality and congestive heart failure (CHF) hospitalization across these two studies. The mortality and CHF hospitalization were not predefined endpoints in the protocols but it was intended that they be analyzed as a part of safety. Thus results from these analyses should not be interpreted as a test of significance as there were no predefined hypotheses corresponding to these safety parameters. […] Odds ratio's with 95% confidence intervals have been provided for these variables.
(§4) Peto-modified Mantel-Haenszel (Fleiss, J.L., Statistical Methods for Rates and Proportions, Wiley, NY, 1981.) method was used to carry out the Meta-analysis of death and CHF hospitalization rates in the two 12 week exercise studies. This method assumes homogeneity across the studies and provides a test for heterogeneity.
A total of three hundred and eighty five (385) patients were enrolled in the protocol B exercise study; 254 patients were randomized to receive losartan and 131 patients were randomized to receive placebo. There were 9 (6.9%) deaths in the placebo group as compared to 3 (1.2%) in the losartan group during the double-blind therapy or as related to serious AE during double-blind. Additionally there were 7 (5.3%) CHF hospitalizations in the placebo group as compared to 5 (2.0%) in the losartan group during the double-blind therapy or as related to serious AE during double-blind.

[3] = tested on: patients with symptomatic heart failure; assay: Exercise study Protocol A: 12-week placebo-controlled study of losartan, clinical events; type: in vivo; details: for CHF Hospitalization (during DB) / Death: 12 weeks; for CHF Hospitalization (during DB): one patient hospitalized 2 days after discontinuation included; for Death: during double-blind therapy or related to SAE during double-blind
Excerpt: as §1, §2, §3, §4
A total of three hundred and fifty one (351) patients were enrolled in the protocol A study; 237 patients were randomized to receive losartan and 114 patients were randomized to receive placebo. There were 4 (3.5%) deaths in the placebo group as compared to 4 (1.7%) in the losartan group during the double-blind therapy or as related to serious adverse events (AE) during double-blind. Additionally there were 10 (8.8%) CHF hospitalizations in the placebo group as compared to 10 (4.2%) in the losartan group during the double-blind therapy or as related to serious AE during double-blind. One patient included in the losartan group discontinued due to worsening HF and was hospitalized 2 days after discontinuation from double-blind period.

[4] = tested on: older patients with symptomatic heart failure; details: for hospitalized overall for any reason: 48-week study observation period, p=0.018
Excerpt: The study was approved by institutional review boards at each site; all patients gave written informed consent. An independent Data and Safety Monitoring Committee monitored the progress of the study. See Pitt B, Chang P, Timmermans P. Angiotensin II receptor antagonists in heart failure: Rationale and design of the Evaluation of Losartan in the Elderly (ELITE) Trial. Cardiovascular Drugs and Therapy 1995; 9: 693-700.
A detailed description of enrollment and exclusion criteria and study design has been presented previously. See Pitt B, Chang P, Timmermans P. Angiotensin II receptor antagonists in heart failure: Rationale and design of the Evaluation of Losartan in the Elderly (ELITE) Trial. Cardiovascular Drugs and Therapy 1995; 9: 693-700.
Titration generally occurred at 7-day intervals as tolerated. Treatment with all other concomitant cardiovascular therapies was permitted with the exception of open-label ACE inhibitors. Randomized patients were stratified by age (less than 70 and 70 years or greater).
Clinical assessments were performed weekly during titration and at three-month intervals thereafter. Laboratory evaluations were performed at weeks three, six, and twelve, and at three month intervals thereafter.
See Example 2) Hypotension-related symptoms, clinically important serum potassium increases (≥ 0.5 mEq/L), and cough, all originally secondary endpoints, were moved to tertiary endpoints. All deaths (including cause of death) and hospitalizations were adjudicated by an independent Clinical Endpoint Adjudication Committee, blinded to study treatment (see panel for mortality classification). Other prospectively-defined measures included myocardial infarction/hospitalization for unstable angina, worsening of heart failure, New York Heart Association functional classification, discontinuation from the study due to study drug intolerance, changes in neurohormonal profile.
• Sudden Cardiac Death: Death occurring without warning or within 1 hour of symptoms • Death due to Progressive Heart Failure: Death preceded by worsening signs and/or symptoms of heart failure, including cardiogenic shock • Fatal Myocardial Infarction: Death associated with autopsy-verified myocardial infarction or death within 28 days of a hospital-verified acute myocardial infarction provided no other cardiac or non-cardiac cause of death is found • Death due to Other Cardiac Causes: Death due to other cardiac causes, such as arrhythmia • Death due to Other Vascular Causes: Death due to vascular events such as stroke, pulmonary embolus, ruptured aneurysm, etc. • Death due to non-cardiovascular causes: Death not due to any cardiac or vascular events
The power and sample-size estimates for this study have been described. See Pitt B, Chang P, Timmermans P. Angiotensin II receptor antagonists in heart failure: Rationale and design of the Evaluation of Losartan in the Elderly (ELITE) Trial. Cardiovascular Drugs and Therapy 1995; 9: 693-700. Analysis of renal dysfunction (increases in serum creatinine) was based upon a modified intent-to-treat population; i.e., all patients were analyzed according to their randomization group, and an endpoint was declared only if initial and confirmatory elevations occurred while on double-blind therapy. Patients who discontinued from the study without meeting this endpoint were censored in the time-to-event analysis at the time of study discontinuation.
Analyses of deaths and heart failure hospitalizations (adjudicated endpoints) were based on an intent-to-treat population; all patients discontinued prematurely were followed through the specified 48-week period of the study. Patients not meeting the endpoint were censored in the time-to-event analysis either at the time of study completion (for patients who completed) or at the end of the 48-week follow-up period (for patients who discontinued).
For all time-to-event data, survival analyses were based upon the log-rank test.

[5] = number of patients of 254 randomized to losartan
[6] = odds in placebo group relative to losartan group
[7] = number of patients of 237 randomized to losartan
[8] = losartan compared to captopril, controlled for age category
[9] = losartan compared to captopril, negative = increase in risk

Which results are given for `CCCCc1nc(Cl)c(CO)n1Cc1ccc(-c2ccccc2-c2nn[nH]n2)cc1` [Losartan]?
CHF Hospitalization, Odds Ratio [1]: 2.4*; Death, Odds Ratio [1]: 3.5*; CHF Hospitalization, Odds Ratio ([1]; listed as losartan): 2.4; Death, Odds Ratio ([1]; listed as losartan): 3.5; CHF Hospitalization (during double-blind) ([1]; Protocols A & B combined): 3.1% ^a; Death ([1]; Protocols A & B combined, during double-blind therapy or related to Serious AE): 1.4%; CHF Hospitalization (during DB) [2]: 2.0%; CHF Hospitalization (during DB) ([2]; listed as losartan): 2.0%; Death [2]: 1.2%; Death ([2]; listed as losartan): 1.2%; CHF hospitalizations [2, 5]: 5; deaths [2, 5]: 3; CHF Hospitalization, Odds Ratio [2, 6]: 2.7; Death, Odds Ratio [2, 6]: 5.6*; Death, Odds Ratio ([2]; odds in placebo group relative to losartan group, listed as losartan): 5.6; CHF Hospitalization (during DB) [3]: 4.2%^a; CHF Hospitalization (during DB) ([3]; listed as losartan): 4.2%; Death [3]: 1.7%; Death ([3]; listed as losartan): 1.7%; CHF hospitalizations [3, 7]: 10; deaths [3, 7]: 4; CHF Hospitalization, Odds Ratio [3, 6]: 2.2; Death, Odds Ratio [3, 6]: 2.1; hospitalized overall for any reason ([4]; number of patients): 86 patients; hospitalized overall for any reason [4]: 24.4%; incidence of heart failure hospitalizations ([4]; 48 weeks): 5.7%; Single rises of serum creatinine ≥0.3 mg/dL, risk reduction ([4]; human, in vivo): 14%; incidence of death due to progressive heart failure ([4]; human, in vivo): less than one; patients discontinued for renal function reason ([4]; human, in vivo): less than 2%; persistent increases in serum creatinine ≥0.3 mg/dL from baseline ([4]; human, in vivo): 10.5%; tolerability ([4]; human, in vivo): better tolerated compared to captopril; Cause of death: Cardiovascular, Fatal Myocardial Infarction ([4]; intent-to-treat, 48 weeks): 1 (0.3) number (percent) of patients; Cause of death: Cardiovascular, Other Vascular ([4]; intent-to-treat, 48 weeks): 5 (1.4) number (percent) of patients; Cause of death: Cardiovascular, Progressive Heart Failure ([4]; intent-to-treat, 48 weeks): 1 (0.3) number (percent) of patients; Cause of death: Cardiovascular, Sudden Death ([4]; intent-to-treat, 48 weeks): 5 (1.4) number (percent) of patients; Cause of death: Non-cardiovascular ([4]; intent-to-treat, 48 weeks): 5 (1.4) number (percent) of patients; Death and/or Hospitalization for Heart Failure ([4]; intent-to-treat, 48 weeks): 33 (9.4) number (percent) of patients; Hospitalization for Heart Failure ([4]; intent-to-treat, 48 weeks): 20 (5.7) number (percent) of patients; total mortality ([4]; intent-to-treat, 48 weeks): 17 (4.8) number (percent) of patients; Death and/or Hospitalization for Heart Failure, RISK REDUCTION (95% CI) [4, 8]: 0.32 (- 0.04, 0.55); Fatal Myocardial Infarction, RISK REDUCTION (95% CI) [4, 8]: 0.76 (- 0.83, 0.97); Hospitalization for Heart Failure, RISK REDUCTION (95% CI) [4, 8]: 0.04 (- 0.74, 0.47); Non-cardiovascular death, RISK REDUCTION (95% CI) [4, 8]: 0.35 (- 0.94, 0.78); Sudden Death, RISK REDUCTION (95% CI) [4, 8]: 0.64 ( 0.03, 0.86); Total Mortality, RISK REDUCTION (95% CI) [4, 8]: 0.46 ( 0.05, 0.69); Death from Other Vascular causes, RISK REDUCTION (95% CI) [4, 9]: -0.03 (- 2.63, 0.71); Death from Progressive Heart Failure, RISK REDUCTION (95% CI) [4, 9]: -0.11 (-20.23, 0.94); decrease in total mortality (lower risk of death) ([4]; losartan versus captopril, 48 weeks, P=0.035): 46%; Fatal myocardial infarction ([4]; number of patients): one; died of progressive heart failure ([4]; number of patients in each treatment group): one; total mortality ([4]; number of patients, p=0.035): 17 patients; sudden cardiac death ([4]; number of patients, p=0.043): five; death and/or heart failure hospitalizations ([4]; of 352 losartan-treated, of 370 captopril-treated patients): 33 patients; death and/or heart failure hospitalizations ([4]; percent of patients, p=0.075): 9.4%; female patients died ([4]; subpopulation of female patients: of 118 losartan-treated, of 122 captopril-treated): 9 patients; patients classified as New York Heart Association Class I or II at the end of the study ([4]; week 48, versus 66 percent (losartan) and 64 percent (captopril) at baseline): 80%

— patent EP0966282B1, “USE OF THE ANGIOTENSIN II ANTAGONISTS LOSARTAN AND EXP-3174 TO TREAT SYMPTOMATIC HEART FAILURE” (priority 1997, dated 1998)
